{"source": "patent US20200038413A1", "about": "“METHODS OF TREATING PARKINSON'S DISEASE USING AMINOSTEROL COMPOSITIONS” (Enterin, Inc., priority 2018, published 2020)", "key": {"[1]": {"system": "patients with PD and constipation", "assay": "Phase 2 trial: safety and adverse event profile", "type": "in vivo, human", "protocol": "Each dose period was staggered, so that subjects 1-2 were administered a single dose of the drug at the lowest dose of 25 mg. Once 24 hours have elapsed, and provided there are no safety concerns, the patient was sent home and brought back on day 4-8 for the next dose. During the days the subjects are home, they completed the daily diaries and e-mailed them to the study coordinators. Subjects 3-10 were dosed after the first 2 subjects have been observed for 72 hours, i.e. on Day 4. Subjects 1-2 were also brought back on Day 4-8 and administered a single dose of 50 mg. Once another 24 hours have elapsed and provided there are no safety concerns, the patients were all sent home and instructed to return on Day 7 for the next dosing level. This single dosing regimen was continued until each subject was administered a single dose of 200 mg or has reached a dose limiting toxicity (DLT). DLT was the dose which induces repeated vomiting, diarrhea, abdominal pain or symptomatic postural hypotension within 24 hours of dosing.\nAdverse events were coded using the current version of MedDRA. Severity of AEs were assessed by investigators according to CTCAE (v4.03): Grade 1 is labeled as Mild, Grade 2 as Moderate, and Grade 3 and above as Severe. […] The number (percentage) of subjects who experienced an AE during escalation and fixed dosing periods were summarized by dose level and overall for each stage. The denominator for calculating the percentages were based on the number of subjects ever exposed to each dose and overall."}, "[2]": {"system": "patients with PD and constipation", "assay": "Phase 2 trial Stage 2: CNS symptoms (UPDRS, MMSE, PDHQ, BDI-II, sleep diary)", "type": "in vivo, human", "from_the_text": "Exploratory end-points, in addition to constipation, included for example, (i) depression assessed using the Beck Depression Inventory (BDI-II) (Steer et al. 2000) and Unified Parkinson's Disease Rating Scale (UPDRS); (ii) cognition assessed using the Mini Mental State Examination (MMSE) (Palsteia et al. 2018), Unified Parkinson's Disease Rating Scale (UPDRS), and Trail Making Test (TMT); (iii) sleep and REM-behavior disorder (RBD) using a daily sleep diary, I-Button Temperature Assessment, a REM sleep behavior disorder (RBD) questionnaire (RBDQ) (Stiasny-Kolster et al. 2007), and the UPDRS; (iv) hallucinations assessed using the PD hallucinations questionnaire (PDHQ) (Papapetropoulos et al. 2008), the UPDRS, and direct questioning; (v) fatigue using the Parkinson's Disease Fatigue Scale (PFS-16) and the UPDRS; (vi) motor functions using the UPDRS; and (vii) non-motor functions using the UPDRS.\n(§1) Assessments were made at baseline and at the end of the fixed dose and washout periods. Circadian system status was evaluated by continuously monitoring wrist skin temperature (Thermochron iButton DS1921H; Maxim, Dallas) following published procedures (Sarabia et al. 2008).\nCNS Symptoms in Stage 2: An exploratory analysis was done with respect to the sleep data, the body temperature data, mood, fatigue, hallucinations, cognition and other motor and non-motor symptoms of PD. Continuous measurements within a subject were compared with a paired t-test and continuous measurements between subject groups were compared with a two-group t-test. Categorical data were compared with a chi-squared test or a Fisher's exact test if the expected cell counts are too small for a chi-squared test."}, "[3]": {"system": "patients with PD and constipation", "assay": "Phase 2 trial: circadian rhythm of wrist skin temperature", "type": "in vivo, human", "details": "fixed dose vs baseline, 12 patients", "procedure": "as §1\nCircadian rhythm of skin temperature was evaluable in 12 patients (i.e., those who had recordings that extended from baseline through washout). Circadian system functionality was evaluated by continuously monitoring wrist skin temperature using a temperature sensor (Thermochron iButton DS1921H; Maxim, Dallas, TX) (Sarabia et al. 2008). A nonparametric analysis was performed for each participant to characterize DST as previously described (Sarabia et al. 2008; Ortiz-Tudela et al. 2010).\nBriefly, this analysis includes the following parameters: (i) the inter-daily stability (the constancy of 24-hour rhythmic pattern over days, IS); (ii) intra-daily variability (rhythm fragmentation, IV); (iii) average of 10-minute intervals for the 10 hours with the minimum temperature (L10); (iv) average of 10-minute intervals for the 5 hours with the maximum temperature (M5) and the relative amplitude (RA), which was determined by the difference between M5 and L10, divided by the sum of both. Finally, the Circadian Function Index (CFI) was calculated by integrating IS, IV, and RA. Consequently, CFI is a global measure that oscillates between 0 for the absence of circadian rhythmicity and 1 for a robust circadian rhythm (Ortiz-Tudela et al. 2010)."}, "[4]": {"system": "colon segments (propagating contractile clusters)", "assay": "Ex vivo colon motility, A53T human α-synuclein overexpressing mice and WT littermates", "parameters": "species or system mouse"}, "[5]": {"system": "WT and A53T mice", "assay": "In vivo fecal pellet output test", "parameters": "species or system mouse", "details": "for FPO in the first 15 min: Day 5 vs Day 0", "procedure": "In vivo fecal pellet output: Mice were subjected to the FPO test 1 day prior to the start of dosing with squalamine or vehicle (sterile water) (day 0). Mice were fasted for one hour and then given access to food one hour before FPO testing. On days 1-5 mice were fasted for one hour prior to oral gavage with vehicle or 20, 40, 80, or 120mg/kg squalamine. Oral gavage occurred between 10:00 to 11:00 am daily. On day 5, the FPO test was performed 1 hour after the final dose was administered. Total number of stool pellets produced in the first 15 min and over a 60 min period was measured in each group. Stool water content was measured by comparing wet and dry weights of the stool."}, "[6]": {"system": "myenteric intrinsic primary afferent neurons (IPANs)", "assay": "Whole-cell patch clamp, divided hemi-dissection preparation, FVB PD mice", "type": "cell-based, mouse", "details": "for decrease in sAHP area under the curve / depolarisation of RMP / increase in number of APs at 2× threshold intensity / number of APs at 2× threshold intensity / AP threshold / sAHP area under the curve / RMP: FVB PD", "procedure": "Whole-cell Patch Clamp: Whole-cell patch clamp was performed on a hemi-dissected myenteric plexus preparation as previously described. […]\nMyenteric Primary Afferent Neuron Excitation: Squalamine excites myenteric primary afferent neurons. The effect of squalamine on the excitability of an isolated intestinal segment from the FVB PD mouse was explored using divided hemi-dissection preparations so that neurons are exposed for only half the area of an opened small intestinal segment. In this experiment, the inquiry was whether squalamine influenced the activity of the IPAN through direct interaction or indirectly, by stimulating release of epithelial mediators that influenced IPAN behaviour. Addition of squalamine (30 μM) to Krebs buffer in either the epithelial or the myenteric plexus compartments of the divided hemi-dissection preparation increased IPAN excitability (FIG. 12A-F). […] Addition of squalamine decreased the area under the curve of the sAHP by 77% from 86.8±88.2 to 20.3±25.3 mV.s, and depolarised RMP by 12% from −62±7 to −54±6 mV."}, "[7]": {"assay": "Preclinical oral studies in rats", "type": "in vivo"}, "[8]": {"details": "30 μM added to the myenteric plexus"}}, "note": "Values joined by “and” are separate entries in the source; they are usually repeats but may differ in a detail not shown here. Equal values may be shown once."}
{"smiles": "CC(C)[C@@H](CC[C@@H](C)[C@H]1CC[C@H]2[C@@H]3[C@H](O)C[C@H]4C[C@@H](NCCCNCCCCN)CC[C@]4(C)[C@H]3CC[C@]12C)OS(=O)(=O)O", "note": "(single isomer, unassigned) [squalamine (ENT-01), squalamine]", "values": [{"measurement": "Diarrhea, patients", "setting": "[1]; Stage 1, 4/10", "result": 40, "unit": "%"}, {"measurement": "nausea, patients", "setting": "[1]; Stage 1, 4/10", "result": 40, "unit": "%"}, {"measurement": "Diarrhea, patients", "setting": "[1]; Stage 2, 15/34", "result": 44, "unit": "%"}, {"measurement": "nausea, patients", "setting": "[1]; Stage 2, 18/34", "result": 52.9, "unit": "%"}, {"measurement": "worsening of hemorrhoids, patients", "setting": "[1]; both stages, 1/44", "result": 2.2, "unit": "%"}, {"measurement": "worsening of acid reflux, patients", "setting": "[1]; both stages, 2/44", "result": 4.5, "unit": "%"}, {"measurement": "flatulence, patients", "setting": "[1]; both stages, 3/44", "result": 6.8, "unit": "%"}, {"measurement": "vomiting, patients", "setting": "[1]; both stages, 3/44", "result": 6.8, "unit": "%"}, {"measurement": "dizziness, patients", "setting": "[1]; both stages, 8/44", "result": 18, "unit": "%"}, {"measurement": "abdominal pain, patients", "setting": "[1]; both stages, 11/44", "result": 32, "unit": "%"}, {"measurement": "increase in total sleep time", "setting": "[2]; 250 mg vs baseline", "result": 18, "unit": "%"}, {"measurement": "hallucinations and delusions improved or disappeared", "setting": "[2]; during treatment, patients with hallucinations (5) or delusions (1) at baseline", "result": "5 of 6"}, {"measurement": "improvement in frequency of arm or leg thrashing", "setting": "[2]; maximal dose vs baseline", "result": 100, "unit": "%"}, {"measurement": "improvement in UPDRS Part 1", "setting": "[2]; wash-out vs baseline", "result": "~20% and 18%"}, {"measurement": "relative amplitude (RA)", "setting": "[3]; p=0.001", "result": "increasing"}, {"measurement": "circadian function index (CFI)", "setting": "[3]; p=0.016", "result": "increasing"}, {"measurement": "rhythm stability (IS)", "setting": "[3]; p=0.026", "result": "increasing"}, {"measurement": "rhythm fragmentation (IV)", "setting": "[3]; p=0.031", "result": "reducing"}, {"measurement": "PCC velocity", "setting": "[4]; A53T mice, baseline state, intraluminal 30 μM, without drug 1.2±0.2", "result": "2.3±0.4", "unit": "mm/s"}, {"measurement": "PCC velocity", "setting": "[4]; A53T mice, colonic expansion (mechanical threshold), 30 μM, without drug 1.6±0.3", "result": "2.1±0.3", "unit": "mm/s"}, {"measurement": "PCC velocity", "setting": "[4]; WT mice, baseline state, intraluminal 30 μM, without drug 1.7±0.3", "result": "2.8±0.4", "unit": "mm/s"}, {"measurement": "PCC velocity", "setting": "[4]; WT mice, colonic expansion (mechanical threshold), 30 μM, without drug 3.0±0.7", "result": "2.4±0.3", "unit": "mm/s"}, {"measurement": "FPO in the first 15 min", "setting": "[5]; A53T mice, 20, 40 and 80 mg/kg oral gavage for 5 days", "result": "significantly increased"}, {"measurement": "fecal water content", "setting": "[5]; A53T mice, 80 and 120 mg/kg oral", "result": "significantly increased"}, {"measurement": "fecal water content", "setting": "[5]; WT mice, 80 mg/kg oral", "result": "significantly increased"}, {"measurement": "FPO in the first 15 min", "setting": "[5]; WT mice, 40 and 120 mg/kg oral gavage for 5 days", "result": "significantly increased"}, {"measurement": "decrease in sAHP area under the curve", "setting": "[6]; 30 μM added to the epithelium", "result": 77, "unit": "%"}, {"measurement": "depolarisation of RMP", "setting": "[6]; 30 μM added to the epithelium", "result": 12, "unit": "%"}, {"measurement": "increase in number of APs at 2× threshold intensity", "setting": "[6]; 30 μM added to the epithelium", "result": 87, "unit": "%"}, {"measurement": "decrease in AP threshold", "setting": "[6]; 30 μM added to the epithelium, FVB PD mouse (N=15)", "result": 44, "unit": "%"}, {"measurement": "number of APs at 2× threshold intensity", "setting": "[6]; 30 μM added to the epithelium, before 1.6±0.6", "result": "3.1±0.7"}, {"measurement": "AP threshold", "setting": "[6]; 30 μM added to the epithelium, before 63.7±50.4", "result": "35.7±22.3", "unit": "pA"}, {"measurement": "sAHP area under the curve", "setting": "[6]; 30 μM added to the epithelium, before 86.8±88.2", "result": "20.3±25.3", "unit": "mV.s"}, {"measurement": "RMP", "setting": "[6]; 30 μM added to the epithelium, before −62±7", "result": "−54±6", "unit": "mV"}, {"measurement": "decrease in sAHP area under the curve", "setting": "[6]; [8]", "result": 87, "unit": "%"}, {"measurement": "depolarisation of RMP", "setting": "[6]; [8]", "result": 13, "unit": "%"}, {"measurement": "increase in number of APs at 2× threshold intensity", "setting": "[6]; [8]", "result": 214, "unit": "%"}, {"measurement": "decrease in AP threshold", "setting": "[6]; 30 μM added to the myenteric plexus, FVB PD mouse (N=5)", "result": 37, "unit": "%"}, {"measurement": "number of APs at 2× threshold intensity", "setting": "[6]; 30 μM added to the myenteric plexus, before 1.4±0.5", "result": "4.4±2.8"}, {"measurement": "AP threshold", "setting": "[6]; 30 μM added to the myenteric plexus, before 46.0±31.3", "result": "29.0±10.1", "unit": "pA"}, {"measurement": "RMP", "setting": "[6]; 30 μM added to the myenteric plexus, before −63±4", "result": "−55±6", "unit": "mV"}, {"measurement": "sAHP area under the curve", "setting": "[6]; 30 μM added to the myenteric plexus, before −71.9±60.1", "result": "-9.6±15.1", "unit": "mV.s"}, {"measurement": "tolerability", "setting": "[7]; oral", "result": "well tolerated"}, {"measurement": "oral bioavailability", "setting": "[7]; preclinical studies", "result": "about 0.1%"}]}
